The values below come from ChEMBL document CHEMBL1159189, “Pyrazolo[3,4-d]pyrimidines; adenosine receptor selectivity” (Bioorg Med Chem Lett, 1995).

The target in experiment [1] is T1, Adenosine receptor A1 (Rattus norvegicus, UniProt P25099).
T1 sequence (P25099 whole entry): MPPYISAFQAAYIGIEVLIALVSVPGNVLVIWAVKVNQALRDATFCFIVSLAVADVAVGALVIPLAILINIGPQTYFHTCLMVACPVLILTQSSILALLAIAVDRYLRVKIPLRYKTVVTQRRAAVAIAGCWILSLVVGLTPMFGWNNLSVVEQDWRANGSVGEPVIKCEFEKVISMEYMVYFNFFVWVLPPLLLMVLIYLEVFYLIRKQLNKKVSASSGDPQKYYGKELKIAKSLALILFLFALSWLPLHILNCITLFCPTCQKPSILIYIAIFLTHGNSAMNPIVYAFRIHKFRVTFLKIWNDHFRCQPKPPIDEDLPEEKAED
The experiment is described as follows: Binding affinity for Adenosine A1 receptor by inhibition of [3H]PIA binding to whole rat brain membranes. Format: cell membranes, Membrane.

Experiment [2] concerns the target T2, Adenosine receptor A2a (Rattus norvegicus, UniProt P30543). The experiment is described as follows: Binding affinity towards Adenosine A2a receptor by inhibition of [3H]CGS-21680 binding to rat brain striatum membranes. Format: cell membranes, Membrane.
The target of experiment [3] is Adenosine receptors; A1 & A2a (Rattus norvegicus) (UniProt P25099+P30543). In words: Ratio of binding affinities for adenosine receptor A2a and adenosine receptor A1. It counts as protein assay.
Sequence of Adenosine receptors; A1 & A2a (Rattus norvegicus) (P30543 whole entry, looked up, one chain of several): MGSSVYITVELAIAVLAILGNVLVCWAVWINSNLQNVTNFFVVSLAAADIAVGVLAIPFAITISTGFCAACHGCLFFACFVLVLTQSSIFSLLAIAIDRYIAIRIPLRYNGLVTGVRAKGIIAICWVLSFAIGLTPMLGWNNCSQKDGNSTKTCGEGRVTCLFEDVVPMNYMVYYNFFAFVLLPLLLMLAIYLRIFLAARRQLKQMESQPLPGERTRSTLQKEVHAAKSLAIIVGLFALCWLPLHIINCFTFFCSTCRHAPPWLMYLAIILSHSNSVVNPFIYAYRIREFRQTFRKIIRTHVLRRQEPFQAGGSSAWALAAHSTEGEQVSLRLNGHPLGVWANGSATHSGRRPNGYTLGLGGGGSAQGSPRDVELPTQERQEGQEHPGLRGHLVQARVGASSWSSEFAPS
The target in experiment [4] is T2, Adenosine receptor A2a. In words: Inhibitory activity against Adenosine A2a receptor binding site.

Molecules are shown by their SMILES.

T2 sequence (P30543 whole entry): as the sequence (P30543 whole entry, looked up, one chain of several) above

On to `CC(Sc1nc(SC(C)C(N)=O)c2cnn(-c3ccccc3)c2n1)C(N)=O` (stereo not given), for which the Ki in experiment [1] was determined as 229 nM; in experiment [2], 146 nM.

`NC(=O)CSc1nc(N)c2cnn(-c3ccccc3)c2n1`: the results for the Ki in experiment [1] and in experiment [2] were 28.5 nM and 44.9 nM, respectively. The Ratio in experiment [3] is 1.6.

For `CCNC(=O)CCSc1nc(N)c2cnn(-c3ccccc3)c2n1`, the Ki in experiment [1] was determined as 551 nM; in experiment [2] it was 1280 nM. In addition, the Ratio in experiment [3] was 2.3.

Consider `CCCCn1c(=O)[nH]c2c(cnn2-c2cccc(Cl)c2)c1=N`, for which the IC50 in experiment [4] stood at 19200 nM.

Regarding `CCNC(=O)CSc1nc(N)c2cnn(-c3ccccc3)c2n1`, the results for the Ki in experiment [1] and in experiment [2] were 12.1 nM and 131 nM, respectively. Also, the Ratio in experiment [3] came to 10.8.

For the compound `NC(=O)CCSc1nc(N)c2cnn(-c3ccccc3)c2n1`, the results for the Ki in experiment [1] and in experiment [2] were 428 nM and 101 nM, respectively. In addition, in experiment [3], the Ratio was 0.24.

What is called Ki is a dissociation constant, usually derived from enzyme kinetics or from competition with a known ligand. Usually IC50 stands for the concentration that gives 50% inhibition. A high value points to weaker potency.
